Data reported in ChEMBL document CHEMBL1136669, “Synthesis of aza and oxaglutamyl-p-nitroanilide derivatives and their kinetic studies with gamma-glutamyltranspeptidase” (Bioorg Med Chem Lett, 2003).

Target: Glutathione hydrolase 1 proenzyme (Rattus norvegicus, UniProt P07314)
Test: Compound was tested for the competitive inhibition of rat kidney gamma-glutamyltranspeptidase (gamma-GGT)

Chain of Glutathione hydrolase 1 proenzyme (P07314 1-379 limits assumed): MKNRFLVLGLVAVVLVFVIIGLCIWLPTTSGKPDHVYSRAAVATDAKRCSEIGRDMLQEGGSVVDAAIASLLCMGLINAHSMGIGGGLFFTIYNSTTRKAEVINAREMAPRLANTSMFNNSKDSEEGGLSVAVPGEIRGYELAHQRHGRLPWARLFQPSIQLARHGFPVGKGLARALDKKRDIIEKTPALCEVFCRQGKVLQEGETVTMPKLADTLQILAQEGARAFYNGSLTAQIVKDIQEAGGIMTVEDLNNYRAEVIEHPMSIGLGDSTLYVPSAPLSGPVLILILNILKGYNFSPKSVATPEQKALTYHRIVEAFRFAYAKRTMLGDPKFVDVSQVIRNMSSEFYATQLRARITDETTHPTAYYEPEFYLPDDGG
Chain of Glutathione hydrolase 1 proenzyme (P07314 380-568 limits assumed): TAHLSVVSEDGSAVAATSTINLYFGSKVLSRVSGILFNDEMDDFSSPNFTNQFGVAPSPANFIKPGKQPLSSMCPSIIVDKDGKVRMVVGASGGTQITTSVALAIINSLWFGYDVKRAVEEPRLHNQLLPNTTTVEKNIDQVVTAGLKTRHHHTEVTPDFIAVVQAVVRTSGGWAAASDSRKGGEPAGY

Ki comp: 3.8 mM
SMILES: Cl.N[C@@H](CNC(=O)Nc1ccc([N+](=O)[O-])cc1)C(=O)O
